Experimental data as given in patent publication US20210322508A1, “PEPTIDES AND COMPOSITIONS FOR TARGETED TREATMENT AND IMAGING” (SIGNABLOK, INC., priority 2018, published 2021).
Residues, ends and D or L forms follow the SMILES beside them.

What was measured:
[1] = tested on: human pancreatic cancer xenografts (cancer mice); conditions: mouse, in vivo
Description: Treatment persisted for 31, 29 and 29 days for mice containing AsPC-1, BxPC-3 and Capan-1 tumor xenografts, respectively. Mean tumor volumes are calculated and plotted. All results are expressed as the mean±SEM (n=6 mice per group). On the final day of treatment, tumor volumes were compared between the drug-treated and control groups. **, p<0.01; ***, p<0.001; ****, p<0.0001 (versus vehicle).

[2] = Crossing of blood-retinal and blood-brain barrier (rho B-labeled); conditions: mouse, in vivo
Description: Litters of C57BL/6J (Jackson Laboratory, Bar Harbor, Me.) neonatal mice and nursing dams were exposed to a hyperoxia environment (75% oxygen) from postnatal day 7 (P7) to P12 and returned to normoxia until P17. The hyperoxia exposure causes degeneration of the immature retinal vessels. […] Beginning on P7, mice were treated until day P17 by daily i.p. injections of GF9, GF9-SLP, TREM-1/TRIOPEP-sSLP or vehicle (phosphate-buffered saline, pH 7.4; PBS). […] In another subset of experiments, rho B-labeled Gd-containing sSLP were used to confirm the ability of these targeted SLP to cross the BRB in other species (rats and rabbits). In another subset of experiments, neonatal mice and nursing dams were not subjected to a hyperoxia environment and reared in room air (RA). At P17, all mice were humanely sacrificed and their retinas were collected.
Litters of C57BL/6J (Jackson Laboratory, Bar Harbor, Me.) neonatal mice and nursing dams were exposed to a hyperoxia environment (75% oxygen) from postnatal day 7 (P7) to P12 and returned to normoxia until P17. The hyperoxia exposure causes degeneration of the immature retinal vessels. […] Beginning on P7, mice were treated until day P17 by daily i.p. injections of G-KV21, G-TE21 at indicated doses or vehicle (PBS, pH 7.4). In certain embodiments, neonatal mice and nursing dams were not subjected to a hyperoxia environment and reared in room air. […]

[3] = comparison of therapies (cancer indications); conditions: shown for cancer indications
[4] = tested on: intratumoral macrophages (F4/80); test: Immunohistochemistry of intratumoral macrophages (F4/80) in PC xenografts; type: in vivo, mouse; conditions: PC xenografts (shown for BxPC-3)
Description: All staining and quantification procedures were performed by HistoTox Laboratories. Briefly, mice containing AsPC-1, BxPC-3, and Capan-1 tumors were humanely euthanized for necropsy at the end of the study. Excised tumors were fixed using 10% neutral buffered formalin for 1-2 days, processed for paraffin embedding, and sectioned at […]. Antigen retrieval for F4/80 was achieved using Proteinase K (Dako North America). Sections were blocked for peroxidase and alkaline phosphatase activity using Dual Endogenous Enzyme Block (Dako North America). Sections were then incubated with Protein Block (Dako North America) followed by primary antibody F4/80 (1:2000, AbD Serotec) diluted using 1% bovine serum albumin in Tris-buffered saline. […] Quantitative analysis of intratumoral F4/80 staining was determined using Visiopharm software.
Mice containing BxPC-3 tumors were humanely euthanized for necropsy at the end of the study. […] Quantitative analysis of intratumoral F4/80 staining was determined using Visiopharm software.
Immunohistochemistry. All staining and quantification procedures were performed by HistoTox Labs. […] Quantitative analysis of intratumoral F4/80 staining was determined using Visiopharm software.

[5] = tested on: human pancreatic cancer PANC-1 xenograft; test: PANC-1 xenograft mouse model, standalone and with GEM+ABX chemotherapy; type: in vivo
Description: Mice were implanted subcutaneously into the right flank with PANC-1 cells in equal parts of serum-free growth medium and Matrigel. Mice were monitored daily and tumor measurements were taken along the length and width using Vernier calipers twice weekly until sacrifice. Tumor volumes were calculated using a modified ellipsoidal formula: (Length×Width^2)/2. […] Body weight were measured. Mean tumor volumes were calculated. […] Survival was evaluated using Kaplan-Meier survival curves.

[6] = tested on: mice with oxygen-induced retinopathy (OIR); test: oxygen-induced retinopathy (OIR) in mice; type: in vivo
Excerpt: The membrane was probed for TREM-1, reprobed for CSF1 and then for β-actin.

[7] = penetration of the blood-brain and blood-retinal barrier after systemic administration; type: in vivo; conditions: rhodamine B-labeled; mice intraperitoneally; rats and rabbits intravenously (G-KV21)

Compound: CC(C)C[C@H](NC(=O)[C@H](Cc1ccccc1)NC(=O)CN)C(=O)N[C@@H](CO)C(=O)N[C@@H](CCCCN)C(=O)N[C@@H](CO)C(=O)N[C@@H](CC(C)C)C(=O)N[C@H](C(=O)N[C@@H](Cc1ccccc1)C(=O)O)C(C)C [GF9] (H-GFLSKSLVF-OH)
- tolerability in cancer mice [1]: Non-Toxic
- passage of blood-retinal barrier (BRB) and blood-brain barrier (BBB) [2]: pass the blood-retinal barrier (BRB) and blood-brain barrier (BBB)
- Acute toxicity [3]: LOW

Compound: CC(C)C[C@H](NC(=O)[C@H](Cc1ccccc1)NC(=O)CN)C(=O)N[C@@H](CO)C(=O)N[C@@H](CCCCN)C(=O)N[C@@H](CO)C(=O)N[C@@H](CC(C)C)C(=O)N[C@H](C(=O)N[C@@H](Cc1ccccc1)C(=O)NCC(=O)N[C@@H](CCC(=O)O)C(=O)N[C@@H](CCC(=O)O)C(=O)N[C@@H](CC[S+](C)[O-])C(=O)N[C@@H](CCCNC(=N)N)C(=O)N[C@@H](CC(=O)O)C(=O)N[C@@H](CCCNC(=N)N)C(=O)N[C@@H](C)C(=O)N[C@@H](CCCNC(=N)N)C(=O)N[C@@H](C)C(=O)N[C@@H](Cc1c[nH]cn1)C(=O)N[C@H](C(=O)O)C(C)C)C(C)C (stereo partly drawn) [G-HV21] (HELM PEPTIDE1{G.F.L.S.K.S.L.V.F.G.E.E.[CS(=O)CC[C@H](N[*:1])C(=O)[*:2]].R.D.R.A.R.A.H.V}$$$$V2.0)
- intratumoral macrophage content / infiltration (F4/80) [4]: reduces the macrophage infiltration into the tumor

Compound: CC(C)C[C@H](NC(=O)[C@H](Cc1ccccc1)NC(=O)CN)C(=O)N[C@@H](CO)C(=O)N[C@@H](CCCCN)C(=O)N[C@@H](CO)C(=O)N[C@@H](CC(C)C)C(=O)N[C@H](C(=O)N[C@@H](Cc1ccccc1)C(=O)N[C@@H](Cc1c[nH]c2ccccc12)C(=O)N[C@@H](CCC(N)=O)C(=O)N[C@@H](CCC(=O)O)C(=O)N[C@@H](CCC(=O)O)C(=O)N[C@@H](CC[S+](C)[O-])C(=O)N[C@@H](CCC(=O)O)C(=O)N[C@@H](CC(C)C)C(=O)N[C@@H](Cc1ccc(O)cc1)C(=O)N[C@@H](CCCNC(=N)N)C(=O)N[C@@H](CCC(N)=O)C(=O)N[C@@H](CCCCN)C(=O)N[C@H](C(=O)O)C(C)C)C(C)C (stereo partly drawn) [G-KV21] (HELM PEPTIDE1{G.F.L.S.K.S.L.V.F.W.Q.E.E.[CS(=O)CC[C@H](N[*:1])C(=O)[*:2]].E.L.Y.R.Q.K.V}$$$$V2.0)
- survival, combined with GEM+ABX chemotherapy [5]: significantly improves survival
- tumor growth, combined with GEM+ABX chemotherapy ([5]; GEM+ABX days 1, 4, 8, 11, 15): sensitizes the tumor to chemotherapy
- pathological retinal neovascularization (RNV) ([6]; 25 mg/kg GF9, 2.5 mg/kg GF9-sSLP, 4 mg/kg GA/E31-sSLP where stated): significantly suppresses pathological RNV
- retinal tissue expression of TREM-1 and CSF-1 (M-CSF) ([6]; P17, Western blot): inhibits tissue expression of TREM-1 and M-CSF
- penetration of the BBB and BRB [7]: penetration of the BBB and BRB
